We go through 16 compounds from US12305217B2, “Ex vivo protease activity detection for disease detection/diagnostic, staging, monitoring and treatment” (Sunbird Bio, Inc., priority 2020, dated 2025).

Square brackets hold non-standard residues; d marks the D form. Primed or numbered codes have the meaning given here. Ends that are not written are not given here. CPQ2″ = quencher on the Lys side chain; FAM = fluorescent reporter; PEG2′ = not defined here; CPQ2 = quencher

For assay [1], the system named is proteases in COVID plasma. The assay is described as follows: Ex vivo probe cleavage in COVID and healthy K2EDTA and Lithium Heparin plasma. It counts as biochemical.
The subject of assay [2] is NASH-related protease activity in K2EDTA plasma (cathepsin L). The assay is described as follows: Inhibitor profiling of Probe #102 cleavage in healthy and NASH plasma. As to conditions: for effect of inhibitor on Probe #102 signal: NASH and healthy plasma. It counts as biochemical, mice. The method, then: For this experiment, all plasma samples were prepared individually and diluted 1/10e in PBS with inhibitor added directly to the samples. Inhibitor was prepared at 15× concentration to final. Substrates were diluted in DI water at 18 uM, such that the final concentration on the plate would be 6 uM. All samples were prepared such that their last dilution on the plate would not affect the desired final concentration. 10 ul of each individual sample was pipetted into their corresponding wells, and the plate was then spun down in the centrifuge at 1500 RPM for 30 seconds to coat the bottom of each well with the sample. 5 ul of the 18 uM substrate solution was pipetted into each well being used on a 384 well plate, and then the plate was spun down in the centrifuge at 1500 rpm for 30 seconds. The plate was placed immediately in the plate reader at 37° C. for a 30-minute-long fluorescence kinetic read at 485/535 extended gain.
To assess the proteolytic cleavage pattern of Probe #102, samples were tested using a pool of broad inhibitors for serine, cysteine, threonine, MMP and aspartic protease family members (broad inhibitor) to assess general protease activity, AEBSF for serine proteases, E64 for cysteine proteases, CTSi for broad cathepsin inhibition of cathepsins L, S, K and B, or specific inhibitors for cathepsin K (L00625), for cathepsin L (SID) or cathepsin B (CA074).

Assay [3] concerns proteases in mouse plasma (caspase activity). Description: Ex vivo probe cleavage in plasma of Jo2 fulminant hepatitis mice. The class given is biochemical. As to conditions: mouse plasma 3 hours after Jo2 injection. The method, then: Fulminant hepatitis is induced after injection intraperitoneal of monoclonal antibody anti-CD95 (Jo2, BD biosciences, 4 ug/animal), and mouse plasma samples were collected 3 hours after Jo2 injection.

The subject of assay [4] is cathepsin and/or MMP protease activities. The assay is described as follows: Ex vivo probe cleavage in plasma of healthy, NASH regression and NASH progression mice. The class given is biochemical. As to conditions: K2EDTA plasma collected at 20 weeks. The text has this: Plasma samples were collected from all animals at 20 weeks.
The probes showing the most differentiation in NASH were linked to cathepsin and/or MMP protease activities.

In assay [5] the test system is carboxylesterase 1, phospholipase A2 and lipoprotein lipase. Description: Spiked recombinant enzymes in human plasma with resorufin oleate as substrate. It counts as biochemical.
In assay [6] the test system is COVID-related proteases in swab samples. The assay is described as follows: Ex vivo probe cleavage in COVID positive and negative swab samples. The class given is biochemical.
For the next assay, the target named is Granzyme B (Homo sapiens, UniProt P10144). Description: Inhibition experiments on Probe #647 signal in COVID swab samples. As to conditions: healthy and COVID samples.
Setting [7] is: K2EDTA and Lithium Heparin plasma.

Granzyme B, sequence (P10144 21-247): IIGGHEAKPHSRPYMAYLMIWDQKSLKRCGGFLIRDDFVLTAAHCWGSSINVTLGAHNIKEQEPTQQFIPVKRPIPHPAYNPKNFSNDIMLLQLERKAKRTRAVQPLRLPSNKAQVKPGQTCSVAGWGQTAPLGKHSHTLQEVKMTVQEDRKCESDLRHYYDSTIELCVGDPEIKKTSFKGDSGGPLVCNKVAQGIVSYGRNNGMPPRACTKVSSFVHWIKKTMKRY

With “Probe #84: Furin substrate (GRVKRGLAGK(CPQ2); not fully specified (N-terminus, C-terminus); also: 5-FAM, PEG2-kk-GC)”, the “differential cleavage between COVID and healthy samples” value in assay [1] (setting [7]) is “demonstrated contrast in both sets”.

As to `CC(C)C[C@H](NC(=O)[C@H]1O[C@@H]1C(=O)O)C(=O)NCCCCN=C(N)N` [Probe E64], in assay [2], the “effect of inhibitor on Probe #102 signal” value is on record as “decreased NASH signal significantly”.

Take “Probe #8: Caspase centric probe (chain 1 GVDVADGK; chain 2 KKGC; not fully specified; 5-FAM, CPQ2 quencher, PEG2; Description of Artificial Sequence: Synthetic probe; SITE 8 Lysine modified with a CPQ2 quencher; SITE 1 D-Lysine; SITE 2 D-Lysine)”: the “differentiation between healthy and Jo2 samples” value in assay [3] was “show contrast that is specific and sensitive to the Jo2 model”.

Regarding “Probe #492: ex vivo fluorescent probe used in NASH mouse plasma (chain 1 {FAM}-GQRANSIRVTWGK(CPQ2″)[PEG2′]; chain 2 [dK][dK]GC; not fully specified; printed as (FAM)-GQRANSIRVTWG-K(CPQ2)-(PEG2)-; also: FAM, place not given here)”, the “differentiation among healthy, regression and NASH samples” value (“differentiation among healthy” for short) in assay [4] was “can differentiate”.

As for Resorufin oleate, the “suitability as substrate for enzyme detection” value in assay [5] was “promising for detection of broad range of enzymes”.

Regarding “Probe #409: SARS CoV2 coronavirus substrate (SARS-COV2 3C protease) (GTSAVLQSGFRKGK(CPQ2); not fully specified (N-terminus, C-terminus); also: 5-FAM, PEG2-kk-GC)”, the “differential cleavage between COVID and healthy samples” value in assay [1] (K2 EDTA samples) is on record as “modest contrast”.

“Probe #18: Neutrophil elastase substrate (GAAPVGK(CPQ2); not fully specified (N-terminus, C-terminus); also: 5-FAM, PEG2-kk-GC)”: the “differential cleavage between COVID and healthy samples” value in assay [1] (setting [7]) is “demonstrated contrast in both sets”.

Take “Probe #102: a CTSL sensing probe; fluorescent reporter and quencher peptide probe (chain 1 {FAM}-GKPILFFRLKGK(CPQ2″)[PEG2′]; chain 2 [dK][dK]GC; not fully specified; printed as (FAM)-GKPILFFRLKG-K(CPQ2)-PEG2-kk-GC; also: FAM, place not given here)”: the “protease that the probe responds to” value in assay [2] (individual cathepsin inhibitors, FIG. 30D-F) is reported as “specifically responds to the activity of cathepsin L (CTSL)”. Also, the “differentiation among healthy” value in assay [4] is listed as “can differentiate”.

As for `CN1CCN(c2nc(-c3ccc(C(=O)NC4(C(=O)NCC#N)CCCCC4)cc3)cs2)CC1` [Probe L006235], the “effect of inhibitor on Probe #102 signal” value in assay [2] was “did not significantly decrease signal”.

On to `CCCNC(=O)[C@H]1O[C@@H]1C(=O)N[C@H](C(=O)N1CCC[C@H]1C(=O)O)[C@@H](C)CC` [CA074], for which, in assay [2], the “effect of inhibitor on Probe #102 signal” value is reported as “did not significantly decrease signal”.

As to `NCCc1ccc(S(=O)(=O)F)cc1` [AEBSF], the “decrease of NASH signal” value in assay [2] (Probe #102, 6 uM, NASH plasma) is 65%. In assay [2] (Probe #102, 6 uM, healthy plasma), the “decrease of healthy signal” value came out at 60%.

On to “Probe #462: MMP8 substrate (GKKAKRNALGK(CPQ2); not fully specified (N-terminus, C-terminus); also: FAM, PEG2-DLys-DLys-GC)”, for which the “differential cleavage between COVID and healthy samples” value in assay [1] (setting [7]) is given as “demonstrated contrast in both sets”.

As to “Probe #647: Caspase centric probe; signal measures Granzyme B activity (chain 1 GAIEPDSGGK(CPQ2); chain 2 [dK][dK]GC-NH2; not fully specified (N-terminus, C-terminus); also: 5FAM, PEG2, linkage of the two chains not given here)”, the “differentiation between healthy and Jo2 samples” value in assay [3] was “show contrast that is specific and sensitive to the Jo2 model”. Moreover, the “number of active samples” value in assay [6] (COVID+ swab samples) stood at 7; in assay [6] (COVID- swab samples) it was 1. Moreover, the “difference between COVID+ and COVID- samples” value in assay [6] (swabs in saline, p=0.029) is “significant differences”. For the same compound, the “differentiation among healthy” value in assay [4] is listed as “can differentiate”. For the same compound, the “protease measured by the probe signal” value with Granzyme B was “measures the activity of protease Granzyme B”.

Consider “Probe #428: probe used in NASH regression experiment (chain 1 {FAM}-GDRRKKLTQGK(CPQ2″)[PEG2′]; chain 2 [dK][dK]GC; not fully specified; printed as (FAM)-GDRRKKLTQG-K(CPQ2)-(PEG2)-; also: FAM, place not given here)”, for which the “differentiation among healthy” value in assay [4] was “can differentiate”.

Take `CCCC(=O)O` [butyrate]: in assay [5], the “suitability as substrate for enzyme detection” value is “promising for detection of broad range of enzymes”.

For the compound “Probe #12: Caspase centric probe (chain 1 GDEVDGK; chain 2 KKGC; not fully specified; 5-FAM, CPQ2 quencher, PEG2; Description of Artificial Sequence: Synthetic probe; SITE 7 Lysine modified with a CPQ2 quencher; SITE 1 D-Lysine; SITE 2 D-Lysine)”, the “differentiation between healthy and Jo2 samples” value in assay [3] was “show contrast that is specific and sensitive to the Jo2 model”.
